Values quoted from earlier work as cited in patent US11173121B2, “Pellets having a multi-layer structure for delayed release of the active substance in the distal colon” (Dr. Falk Pharma GmbH, priority 2018, dated 2021).

- pKa value: 12.85±0.10
SMILES: CCCC1O[C@@H]2C[C@H]3[C@@H]4CCC5=CC(=O)C=C[C@]5(C)[C@H]4[C@@H](O)C[C@]3(C)[C@]2(C(=O)CO)O1 (stereo partly shown) [budesonide]
